Measured values published in patent US20260048036A1, “CRYSTALLINE FORMS OF A GLUCOSYLCERAMIDE SYNTHASE INHIBITOR AND USES THEREOF” (ACELINK THERAPEUTICS, INC., priority 2022, published 2026).
Positions count from the first letter of the chain named. Several values for one entry are separate records, joined by “and”; a condition that tells them apart may be missing. Equal values may be shown once. Values belong to the molecule of their own block, whether it stands above or below them.

Key:
[1] = Solid state stability, 1 week (HPLC purity, color, XRPD); details: for Bulk (XRPD) / Purity, Bulk (HPLC): Solid state, 1 week; for Purity, Bulk (HPLC): initial purity 99.8%
[2] = Solubility at 37° C. in pH buffers and bio-relevant media
[3] = Hygroscopicity by DVS at 25° C.; type: physicochemical; details: for water uptake increased from 40% RH to 90% RH: DVS
[4] = biological target: T1, Glucosylceramide synthase (GCS) (Canis lupus familiaris, UniProt A0A8I3MXG6); experiment: GCS enzymatic assay with MDCK cell lysate; type: biochemical, canine
T1 construct: The MDCK, K-562, and L6 cell lines all endogenously express GCS enzyme; host or cells: MDCK (canine kidney) cell lysate
T1 sequence (A0A8I3MXG6 1-394): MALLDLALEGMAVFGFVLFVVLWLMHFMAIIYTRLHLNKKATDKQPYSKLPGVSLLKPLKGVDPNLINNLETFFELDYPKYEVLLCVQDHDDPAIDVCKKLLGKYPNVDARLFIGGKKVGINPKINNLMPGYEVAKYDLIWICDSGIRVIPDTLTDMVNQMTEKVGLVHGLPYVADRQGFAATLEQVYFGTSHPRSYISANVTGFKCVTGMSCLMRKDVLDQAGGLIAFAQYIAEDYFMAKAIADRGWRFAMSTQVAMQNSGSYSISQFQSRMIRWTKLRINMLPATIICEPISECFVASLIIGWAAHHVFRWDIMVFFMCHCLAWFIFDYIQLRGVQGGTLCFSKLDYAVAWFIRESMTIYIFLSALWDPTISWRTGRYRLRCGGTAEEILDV
Description: (§1) The reaction product, C6-NBD-glucosylceramide, could then be detected and quantified by LC-MS/MS. The inventors used this method to test and validate the effect of various GCS inhibitors on GCS enzyme activity from different species.
(§2) The GCS enzyme activity was detected by using the fluorescent substrate, C6-NBD-ceramide, and monitoring the formation of the fluorescent reaction product, C6-NBD-glucosylceramide. First, the inventors used cell lysate derived from a canine kidney cell line (MDCK, ATCC Cat #CCL-34™) as the source of GCS and tested the inhibitory activity of several control and test compounds.
(§3) GCS activity was evaluated using a GCS enzyme assay derived from MDCK or L6 cell lysates.
(§4) MDCK or L6 cell lysates were prepared using M-PER in the presence of a protease inhibitor cocktail. Each 100 mm dish (100% confluent) was lysed with 250 μl of M-PER containing protease inhibitors. Protein concentration was determined using Pierce BCA protein assay kit.
The final concentration of DMSO was 0.1% in both compound treated and DMSO only treated samples. Each individual reaction was terminated with 11 volumes of methanol:acetonitrile (6:5; containing 200 ng/ml Tolbutamide as internal control). After sufficient mixing, reactions were centrifuged at 2000 rpm for 10 mins, supernatant was injected into the LC-MS/MS for analysis.
(§5) The quantitative analysis of C6-NBD-glucosylceramide was performed on a Shimadzu ultra-fast liquid chromatography coupled with API 4000 mass spectrometer. Analyst 1.5 software packages were used to control the LC-MS/MS system, as well as for data acquisition and processing.
(§6) The C6-NBD-glucosylceramide reading was normalized first by dividing the peak area of C6-NBD-glucosylceramide with the peak area of the internal standard, and then the amount was calculated according to the standard curve generated in the same assay run. For the cell based assay results, the amount of C6-NBD-glucosylceramide was also normalized by the protein concentration of the cell samples.
IC50 values were generated from sigmoidal dose-response (variable slope) curves with GraphPad Prism software (GraphPad Software, Inc., San Diego, CA) using the percent inhibition of C6-NBD-glucosylceramide accumulation relative to DMSO control.

[5] = biological target: T2, Glucosylceramide synthase (GCS) (Rattus norvegicus, UniProt Q9R0E0); experiment: GCS enzymatic assay with L6 cell lysate; type: biochemical; details: 1 μM, N = 1, N = 2
T2 construct: The MDCK, K-562, and L6 cell lines all endogenously express GCS enzyme; host or cells: L6 rat skeletal muscle cell lysate
T2 sequence (Q9R0E0 1-394): T1 sequence (A0A8I3MXG6 1-394) with L8Q, V13L, A29S, D96E, G131A, K164R, R249K, A251S, T377A
Description: as §1, with “In this study, the inventors developed a reliable method to monitor GCS catalytic activity using the fluorescent substrate, C6-NBD-ceramide. The reaction” for “The reaction”
The MDCK, K-562, and L6 cell lines all endogenously express GCS enzyme and were used to test the effect of various GCS inhibitors on enzyme originating from different species. The GCS enzyme activity was detected by using the fluorescent substrate, C6-NBD-ceramide, and monitoring the formation of the fluorescent reaction product, C6-NBD-glucosylceramide. First, the inventors used cell lysate derived from a canine kidney cell line (MDCK, ATCC Cat #CCL-34™) as the source of GCS and tested the inhibitory activity of several control and test compounds. The inventors then used the human leukemia K-562 cell line (ATCC Cat #[…]) to test the effect of these GCS inhibitors on intact living cells. Finally, a cell lysate derived from a rat skeletal muscle cell line, L6 (ATCC Cat #[…]), was used to test the effect of these GCS inhibitors on rodent GCS enzyme.
as §3, §4
Sixty micrograms of MDCK lysate was incubated with various concentrations of compounds (0.00001 μM-1 μM) in 100 mM Tris buffer (pH 7.5) containing 10 mM MgCl2, 1 mM dithiothreitol, 1 mM EGTA, 2 mM NAD, 100 μM UDP-glucose, 10 μM C6-NBD-ceramide with 35 μM dioleoylphosphatidylcholine/5 μM sulfatide in a final reaction volume of 100 μl at 37° C. for 1 hour. The final concentration of DMSO was 0.1% in both compound treated and DMSO only treated samples. Each individual reaction was terminated with 11 volumes of methanol:acetonitrile (6:5; containing 200 ng/ml Tolbutamide as internal control). After sufficient mixing, reactions were centrifuged at 2000 rpm for 10 mins, supernatant was injected into the LC-MS/MS for analysis.
For the assay with L6 cell lysate, different amounts of L6 cell lysate were used.
as §5, §6
To confirm the inhibitory activity of test compounds on GCS from different species, cells from rat were used. First, the presence of GCS activity was verified using various amounts of L6 cell lysate (FIG. 34, Table 26).

[6] = biological target: T3, Glucosylceramide synthase (GCS) (Homo sapiens, UniProt Q16739); experiment: GCS cell-based assay with live K-562 cells; details: C6-NBD-glucosylceramide by LC-MS/MS
T3 construct: The MDCK, K-562, and L6 cell lines all endogenously express GCS enzyme; host or cells: K-562 human leukemia cells, live
T3 sequence (Q16739 1-394): T1 sequence (A0A8I3MXG6 1-394) with V20L, S196Y
Description: as §1, §2, §5
as §6, with “samples. […]” for “samples.”

[7] = 1 μM, 60 μg MDCK lysate/reaction, N = 1, N = 2

Compound: O=C(N[C@H](CN1CCCC1)[C@H](O)c1ccc(OC2CC2)c(Cl)c1)/C(=N/O)c1ccc2cc(Cl)ccc2c1.O=C(O)C[C@H](O)C(=O)O
chemical and physical stability ([1]; 25° C./92% RH open container, 40° C./75% RH open container, 60° C. tight container, one week): chemically and physically stable
Bulk (XRPD) ([1]; 25° C./92% RH, open container): No form change
Purity, Bulk (HPLC) ([1]; 25° C./92% RH, open container): 99.8%
Bulk (XRPD) ([1]; 40° C./75% RH, open container): No form change
Purity, Bulk (HPLC) ([1]; 40° C./75% RH, open container): 99.8%
Bulk (XRPD) ([1]; 60° C., tight container): No form change
Purity, Bulk (HPLC) ([1]; 60° C., tight container): 99.8%
higher solubility than that of the free form Crystalline Form A of Compound 1 ([2]; pH 4.5 buffer, 37° C.): about 3 folds
XRPD after DVS test [3]: No form change
hygroscopicity (DVS) [3]: slightly hygroscopic
Desorp. (DVS) ([3]; 0% RH): 0.17%
Sorp. (water uptake by DVS) ([3]; 0% RH): 0.17%
Desorp. (DVS) ([3]; 10% RH): 0.22%
Sorp. (water uptake by DVS) ([3]; 10% RH): 0.22%
Desorp. (DVS) ([3]; 20% RH): 0.26%
Sorp. (water uptake by DVS) ([3]; 20% RH): 0.26%
Desorp. (DVS) ([3]; 30% RH): 0.30%
Sorp. (water uptake by DVS) ([3]; 30% RH): 0.30%
Desorp. (DVS) ([3]; 40% RH): 0.33%
Sorp. (water uptake by DVS) ([3]; 40% RH): 0.33%
Sorp. (water uptake by DVS) ([3]; 50% RH): 0.36%
Sorp. (water uptake by DVS) ([3]; 60% RH): 0.40%
Sorp. (water uptake by DVS) ([3]; 70% RH): 0.48%
Sorp. (water uptake by DVS) ([3]; 80% RH): 0.56%
Sorp. (water uptake by DVS) ([3]; 90% RH): 0.92%
water uptake increased from 40% RH to 90% RH [3]: about 0.59%

Compound: O=C(N[C@H](CN1CCCC1)[C@H](O)c1ccc(OC2CC2)c(Cl)c1)/C(=N/O)c1ccc2cc(Cl)ccc2c1.O=C(O)C(O)C(O)C(=O)O
Bulk (XRPD) ([1]; 25° C./92% RH, open container): No form change
Purity, Bulk (HPLC) ([1]; 25° C./92% RH, open container): 99.8%
Bulk (XRPD) ([1]; 40° C./75% RH, open container): No form change
Purity, Bulk (HPLC) ([1]; 40° C./75% RH, open container): 99.8%
Bulk (XRPD) ([1]; 60° C., tight container): No form change
Purity, Bulk (HPLC) ([1]; 60° C., tight container): 99.8%
XRPD after DVS test [3]: No form change
hygroscopicity (DVS) [3]: slightly hygroscopic
Desorp. (DVS) ([3]; 0% RH): 0.00%
Sorp. (water uptake by DVS) ([3]; 0% RH): 0.00%
Desorp. (DVS) ([3]; 10% RH): 0.07%
Sorp. (water uptake by DVS) ([3]; 10% RH): 0.04%
Desorp. (DVS) ([3]; 20% RH): 0.12%
Sorp. (water uptake by DVS) ([3]; 20% RH): 0.09%
Desorp. (DVS) ([3]; 30% RH): 0.18%
Sorp. (water uptake by DVS) ([3]; 30% RH): 0.14%
Desorp. (DVS) ([3]; 40% RH): 0.22%
Sorp. (water uptake by DVS) ([3]; 40% RH): 0.18%
Sorp. (water uptake by DVS) ([3]; 50% RH): 0.25%
Sorp. (water uptake by DVS) ([3]; 60% RH): 0.28%
Sorp. (water uptake by DVS) ([3]; 70% RH): 0.35%
Sorp. (water uptake by DVS) ([3]; 80% RH): 0.42%
Sorp. (water uptake by DVS) ([3]; 90% RH): 0.57%
water uptake increased from 40% RH to 90% RH [3]: about 0.39%

Compound: O=C(N[C@H](CN1CCCC1)[C@H](O)c1ccc(OC2CC2)c(Cl)c1)/C(=N/O)c1ccc2cc(Cl)ccc2c1 [Compound 1, (E)-N-((1R,2R)-1-(3-chloro-4-cyclopropoxyphenyl)-1-hydroxy-3-(pyrrolidin-1-yl)propan-2-yl)-2-(6-chloronaphthalen-2-yl)-2-(hydroxyimino)acetamide]
pH dependence of solubility ([2]; […]): typical pH dependent solubility

C6-NBD-Ceramide (Normalized to internal control) [4, 7]: 4.68 and 4.99
C6-NBD-Glucosylceramide Concentration [4, 7]: 49.8 nM and 59.3 nM
Inhibition [4, 7]: 94.01%
inhibition at 1 µM [4, 7]: 95%
IC50 ([4]; MDCK cell lysate as source of GCS, C6-NBD-glucosylceramide by LC-MS/MS): 52.2 nM
C6-NBD-Ceramide (Normalized to internal control) ([5]; 30 μg L6 lysate/reaction): 5.98 and 6.37
C6-NBD-Glucosylceramide Concentration ([5]; 30 μg L6 lysate/reaction): 31.2 nM and 51.0 nM
Inhibition ([5]; 30 μg L6 lysate/reaction): 92.48%
inhibition at 1 µM ([5]; 30 μg L6 lysate/reaction): 95.4%
C6-NBD-Ceramide (Normalized to internal control) ([5]; 60 μg L6 lysate/reaction): 6.47 and 5.46
C6-NBD-Glucosylceramide Concentration ([5]; 60 μg L6 lysate/reaction): 50.2 nM and 44.1 nM
Inhibition ([5]; 60 μg L6 lysate/reaction): 96.04%
inhibition at 1 µM ([5]; 60 μg L6 lysate/reaction): 95.5%
C6-NBD-Ceramide (Normalized to internal control) ([5]; 120 μg L6 lysate/reaction): 5.82 and 6.23
C6-NBD-Glucosylceramide Concentration ([5]; 120 μg L6 lysate/reaction): 48.4 nM and 57.9 nM
Inhibition ([5]; 120 μg L6 lysate/reaction): 95.77%
inhibition at 1 µM ([5]; 120 μg L6 lysate/reaction): 96.5%
C6-NBD-Ceramide (Normalized to internal control) ([5]; 180 μg L6 lysate/reaction): 5.60 and 5.41
C6-NBD-Glucosylceramide Concentration ([5]; 180 μg L6 lysate/reaction): 63.6 nM and 63.3 nM
Inhibition ([5]; 180 μg L6 lysate/reaction): 95.22%
inhibition at 1 µM ([5]; 180 μg L6 lysate/reaction): 95.2%
C6-NBD-Ceramide (Normalized to internal control) ([5]; 240 μg L6 lysate/reaction): 4.96 and 5.12
C6-NBD-Glucosylceramide Concentration ([5]; 240 μg L6 lysate/reaction): 56.2 nM and 57.7 nM
Inhibition ([5]; 240 μg L6 lysate/reaction): 95.21%
inhibition at 1 µM ([5]; 240 μg L6 lysate/reaction): 95.3%
Compound: CCCCCCCC(=O)N[C@H](CN1CCCC1)[C@H](O)c1ccc2c(c1)OCCO2 [Eliglustat, reference compound]

IC50 [6]: 14.8 nM
Compound: O=C(N[C@H](CN1CCCC1)[C@H](O)c1ccc(OC2CC2)c(Cl)c1)/C(=N\O)c1ccc2cc(Cl)ccc2c1 [Geometric isomer of Compound 1]
